The results in this text go back to patent publication US8362249B2, “CXCR3 receptor antagonists” (Boehringer Ingelheim International GmbH, priority 2009, dated 2013).

This experiment has as its target CXCR3 (Macaca fascicularis, UniProt A0A2K5UV19). Description: functional cellular assay measuring calcium flux in CXCR3 transfected cells (block of CXCR3/IP-10 interaction). In kind it is cell-based. The conditions noted are these: IP-10 induced intracellular calcium flux; Cyno-CHO cells stably expressing recombinant CXCR3 and G-alpha-16. The method, boiled down: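 Cyno-CHO cells stably co-expressing recombinant CXCR3 and G-alpha-16, loaded with Ca-4 dye (HBSS, 10 mM HEPES pH 7.4, 2 mM probenecid) for 1 h at 37 °C. Compound (10 microM final) preincubated 15 min at room temperature, then IP-10 added at EC80. Intracellular calcium flux read by fluorescence (ex 480/em 540 nm).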
Background: A change in cytosolic calcium serves as a functional read-out for many receptors and channels.

CXCR3, sequence (A0A2K5UV19 entry or part of it): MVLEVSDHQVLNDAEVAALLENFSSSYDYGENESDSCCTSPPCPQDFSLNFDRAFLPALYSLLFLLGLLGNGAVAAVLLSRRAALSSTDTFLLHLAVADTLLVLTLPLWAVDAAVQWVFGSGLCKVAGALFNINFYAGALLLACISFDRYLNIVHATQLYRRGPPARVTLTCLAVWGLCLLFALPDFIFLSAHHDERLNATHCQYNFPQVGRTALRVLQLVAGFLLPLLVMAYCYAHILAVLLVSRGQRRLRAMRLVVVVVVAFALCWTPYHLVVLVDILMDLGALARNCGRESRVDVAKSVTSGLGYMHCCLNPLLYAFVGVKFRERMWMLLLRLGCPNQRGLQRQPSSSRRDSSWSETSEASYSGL

As a reminder, the IC50 is the concentration at which inhibition is half-maximal. As for `Cc1cc(C)n(CC(=O)N2CCN(c3ccccc3C(=O)Nc3nc(C(C)(C)C)c(C#N)s3)CC2)n1` [N-(4-tert-Butyl-5-cyano-thiazol-2-yl)-2-{4-[2-(3,5-dimethyl-pyrazol-1-yl)-acetyl]-piperazin-1-yl}-benzamide], the IC50 came to 18.5 nM.
Take `COc1ccc2nc(NC(=O)c3ccccc3N3CCN(C(=O)Cn4nc(C)cc4C)CC3)sc2c1` [2-{4-[2-(3,5-Dimethyl-pyrazol-1-yl)-acetyl]-piperazin-1-yl}-N-(6-methoxy-benzothiazol-2-yl)-benzamide]: the 50% inhibitory concentration (IC50) was 9.8 nM.
`COc1ccc(C(=O)N(C)CC(=O)N2CCN(c3ccccc3C(=O)Nc3ccncc3)CC2)cc1` [4-Methoxy-N-methyl-N-(2-oxo-2-{4-[2-(pyridin-4-ylcarbamoyl)-phenyl]-piperazin-1-yl}-ethyl)-benzamide]: the half-inhibitory concentration (IC50) was 15 nM.
In the case of `COc1ccc(NC(=O)c2ccccc2N2CCN(C(=O)Cn3nc(C)cc3C)CC2)cn1` [2-{4-[2-(3,5-Dimethyl-pyrazol-1-yl)-acetyl]-piperazin-1-yl}-N-(6-methoxy-pyridin-3-yl)-benzamide] it was 5.9 nM.
In the case of `Cc1cc(C)n(CC(=O)N2CCN(c3ccccc3C(=O)Nc3cnc4c(c3)c(=O)n(C)c(=O)n4C)CC2)n1` [N-(1,3-Dimethyl-2,4-dioxo-1,2,3,4-tetrahydro-pyrido[2,3-d]pyrimidin-6-yl)-2-{4-[2-(3,5-dimethyl-pyrazol-1-yl)-acetyl]-piperazin-1-yl}-benzamide] it was 11.5 nM; in that of `COc1cc(NC(=O)c2ccccc2N2CCN(C(=O)CN3CCCCC3=O)[C@@H](C)C2)ccn1` [N-(2-Methoxy-pyridin-4-yl)-2-{(S)-3-methyl-4-[2-(2-oxo-piperidin-1-yl)-acetyl]-piperazin-1-yl}-benzamide], 13 nM.
The same measure for `Cc1cc(C)n(CC(=O)N2CCN(c3ccccc3C(=O)Nc3cnc(-c4ccccc4)nc3)CC2)n1` [2-{4-[2-(3,5-Dimethyl-pyrazol-1-yl)-acetyl]-piperazin-1-yl}-N-(2-phenyl-pyrimidin-5-yl)-benzamide]: 10.5 nM; for `Cc1cc(C)n(CC(=O)N2CCN(c3ccccc3C(=O)Nc3cc(C4CCCCC4)no3)CC2)n1` [N-(3-Cyclohexyl-isoxazol-5-yl)-2-{4-[2-(3,5-dimethyl-pyrazol-1-yl)-acetyl]-piperazin-1-yl}-benzamide]: 8.3 nM; for `Cc1nc(CC(=O)N2CCN(c3ccccc3C(=O)Nc3ccncc3)CC2)c(C)s1` [2-{4-[2-(2,5-Dimethyl-thiazol-4-yl)-acetyl]-piperazin-1-yl}-N-pyridin-4-yl-benzamide]: 7 nM.
In the case of `COc1ccc(C(=O)NCC(=O)N2CCN(c3ccccc3C(=O)Nc3ccncc3)CC2)cc1OC` [3,4-Dimethoxy-N-(2-oxo-2-{4-[2-(pyridin-4-ylcarbamoyl)-phenyl]-piperazin-1-yl}-ethyl)-benzamide], the IC50 stood at 4.6 nM.
In the case of `Cc1cc(C)n(CC(=O)N2CCN(c3ccccc3C(=O)Nc3ccc(C#N)nc3)CC2)n1` [N-(6-Cyano-pyridin-3-yl)-2-{4-[2-(3,5-dimethyl-pyrazol-1-yl)-acetyl]-piperazin-1-yl}-benzamide], the IC50 is 4.2 nM.
The same measure for `Cc1nc(C)c(CC(=O)N2CCN(c3ccccc3C(=O)Nc3ccncc3)CC2)s1` [2-{4-[2-(2,4-Dimethyl-thiazol-5-yl)-acetyl]-piperazin-1-yl}-N-pyridin-4-yl-benzamide]: 13 nM; for `Cc1cc(C)n(CC(=O)N2CCN(c3ccccc3C(=O)Nc3nc(-c4cccnc4)cs3)CC2)n1` [2-{4-[2-(3,5-Dimethyl-pyrazol-1-yl)-acetyl]-piperazin-1-yl}-N-(4-pyridin-3-yl-thiazol-2-yl)-benzamide]: 20 nM; for `CN(CC(=O)N1CCN(c2ccccc2C(=O)Nc2ccncc2)CC1)C(=O)c1ccccc1` [2-{4-[2-(Benzoyl-methyl-amino)-acetyl]-piperazin-1-yl}-N-pyridin-4-yl-benzamide]: 8.4 nM.
The same measure for `O=C(Nc1ccnc(OCC(F)(F)F)c1)c1ccccc1N1CCN(C(=O)CN2CCCCC2=O)CC1` [2-{4-[2-(2-Oxo-piperidin-1-yl)-acetyl]-piperazin-1-yl}-N-[2-(2,2,2-trifluoro-ethoxy)-pyridin-4-yl]-benzamide]: 7.8 nM; for `Cc1cc(C)n(CC(=O)N2CCN(c3ccccc3C(=O)Nc3ccccc3)CC2)n1` [2-{4-[2-(3,5-Dimethyl-pyrazol-1-yl)-acetyl]-piperazin-1-yl}-N-phenyl-benzamide]: 13 nM; for `COc1ccc(C(=O)NCC(=O)N2CCN(c3ccccc3C(=O)Nc3cccnc3)CC2)cc1C` [4-Methoxy-3-methyl-N-(2-oxo-2-{4-[2-(pyridin-3-ylcarbamoyl)-phenyl]-piperazin-1-yl}-ethyl)-benzamide]: 11 nM.
`Cc1cc(C)n(CC(=O)N2CCN(c3ccccc3C(=O)Nc3cc(C(F)(F)F)no3)CC2)n1` [2-{4-[2-(3,5-Dimethyl-pyrazol-1-yl)-acetyl]-piperazin-1-yl}-N-(3-trifluoromethyl-isoxazol-5-yl)-benzamide]: the IC50 is 5.1 nM.
The same measure for `Cc1cncc(NC(=O)c2ccccc2N2CCN(C(=O)Cn3nc(C)cc3C)CC2)c1` [2-{4-[2-(3,5-Dimethyl-pyrazol-1-yl)-acetyl]-piperazin-1-yl}-N-(5-methyl-pyridin-3-yl)-benzamide]: 5.1 nM.
Take `Cc1cc(C)n(CC(=O)N2CCN(c3ccccc3C(=O)Nc3nc(-c4ccncc4)cs3)CC2)n1` [2-{4-[2-(3,5-Dimethyl-pyrazol-1-yl)-acetyl]-piperazin-1-yl}-N-(4-pyridin-4-yl-thiazol-2-yl)-benzamide]: the IC50 was 13.5 nM.
`Cc1cc(C)n(CC(=O)N2CCN(c3ccccc3C(=O)Nc3cccc(C#N)c3)CC2)n1` [N-(3-Cyano-phenyl)-2-{4-[2-(3,5-dimethyl-pyrazol-1-yl)-acetyl]-piperazin-1-yl}-benzamide]: the IC50 was 4.5 nM.
Regarding `O=C(Nc1ccccc1)c1ccccc1N1CCN(C(=O)Cn2ccc3cccnc32)CC1` [N-Phenyl-2-[4-(2-pyrrolo[2,3-b]pyridin-1-yl-acetyl)-piperazin-1-yl]-benzamide], the IC50 is 3.4 nM.
For `O=C(Nc1ccc(C(F)(F)F)nc1)c1ccccc1N1CCN(C(=O)Cn2ccc3cccnc32)CC1` [2-[4-(2-Pyrrolo[2,3-b]pyridin-1-yl-acetyl)-piperazin-1-yl]-N-(6-trifluoromethyl-pyridin-3-yl)-benzamide], the 50% inhibitory concentration (IC50) came to 6.9 nM.
The same measure for `Cc1nn(-c2ccccc2)c(C)c1CC(=O)N1CCN(c2ccccc2C(=O)Nc2ccncc2)CC1` [2-{4-[2-(3,5-Dimethyl-1-phenyl-1H-pyrazol-4-yl)-acetyl]-piperazin-1-yl}-N-pyridin-4-yl-benzamide]: 16 nM; for `O=C(Nc1ccncc1)c1ccccc1N1CCN(C(=O)CN2CCc3cccnc32)CC1` [2-[4-(2-2,3-Dihydro-pyrrolo[2,3-b]pyridin-1-yl-acetyl)-piperazin-1-yl]-N-pyridin-4-yl-benzamide]: 9 nM.
Regarding `Cc1cc(C)n(CC(=O)N2CCN(c3ncc(Cl)cc3NC(=O)c3cccc(C(F)(F)F)c3)CC2)n1` [N-(5-Chloro-2-{4-[2-(3,5-dimethyl-pyrazol-1-yl)-acetyl]-piperazin-1-yl}-pyridin-3-yl)-3-trifluoromethyl-benzamide], the IC50 is 10.6 nM.
The same measure for `Cc1cc(C)n(CC(=O)N2CCN(c3ccccc3C(=O)Nc3nc4c(Cl)cccc4s3)CC2)n1` [N-(4-Chloro-benzothiazol-2-yl)-2-{4-[2-(3,5-dimethyl-pyrazol-1-yl)-acetyl]-piperazin-1-yl}-benzamide]: 13 nM; for `Cc1cc(C)n(CC(=O)N2CCN(c3ccccc3C(=O)Nc3nccs3)CC2)n1` [2-{4-[2-(3,5-Dimethyl-pyrazol-1-yl)-acetyl]-piperazin-1-yl}-N-thiazol-2-yl-benzamide]: 13 nM.
The same measure for `Cc1cc(C)n(CC(=O)N2CCN(c3ccccc3C(=O)Nc3cccc(OC(F)(F)F)c3)CC2)n1` [2-{4-[2-(3,5-Dimethyl-pyrazol-1-yl)-acetyl]-piperazin-1-yl}-N-(3-trifluoromethoxy-phenyl)-benzamide]: 3.1 nM; for `Cn1cccc1C(=O)NCC(=O)N1CCN(c2ccccc2C(=O)Nc2ccncc2)CC1` [1-Methyl-1H-pyrrole-2-carboxylic acid (2-oxo-2-{4-[2-(pyridin-4-ylcarbamoyl)-phenyl]-piperazin-1-yl}-ethyl)-amide]: 4.2 nM; for `O=C(Nc1ccncc1)c1ccccc1N1CCN(C(=O)CN2Cc3ccccc3C2=O)CC1` [2-{4-[2-(1-Oxo-1,3-dihydro-isoindol-2-yl)-acetyl]-piperazin-1-yl}-N-pyridin-4-yl-benzamide]: 5.1 nM.
The same measure for `CC(=O)Nc1ccc(NC(=O)c2ccccc2N2CCN(C(=O)Cn3nc(C)cc3C)CC2)cn1` [N-(6-Acetylamino-pyridin-3-yl)-2-{4-[2-(3,5-dimethyl-pyrazol-1-yl)-acetyl]-piperazin-1-yl}-benzamide]: 10.2 nM; for `Cc1cc(C)n(CC(=O)N2CCN(c3ccccc3C(=O)Nc3ccnc(Cl)c3)CC2)n1` [N-(2-Chloro-pyridin-4-yl)-2-{4-[2-(3,5-dimethyl-pyrazol-1-yl)-acetyl]-piperazin-1-yl}-benzamide]: 7.2 nM.
Take `Cc1cc(C)n(CC(=O)N2CCN(c3ccccc3C(=O)Nc3cccc(Cl)c3)CC2)n1` [N-(3-Chloro-phenyl)-2-{4-[2-(3,5-dimethyl-pyrazol-1-yl)-acetyl]-piperazin-1-yl}-benzamide]: the IC50 is 3.3 nM.
The same measure for `Cc1cc(C)n(CC(=O)N2CCN(c3ccccc3C(=O)Nc3ccncc3)CC2)n1` [2-{4-[2-(3,5-Dimethyl-pyrazol-1-yl)-acetyl]-piperazin-1-yl}-N-pyridin-4-yl-benzamide]: 4.7 nM.
On to `O=C(NCC(=O)N1CCN(c2ccccc2C(=O)Nc2cccnc2)CC1)c1ccc(OC(F)F)cc1` [4-Difluormethoxy-N-(2-oxo-2-{4-[2-(pyridin-3-ylcarbamoyl)-phenyl]-piperazin-1-yl}-ethyl)-benzamide], for which the IC50 is 18.3 nM.
